Measured values reported in patent publication US4812567A, “Polycyclic spiroimides with psychotropic activity” (American Home Products Corporation, priority 1986, dated 1989).
Where a name gives a salt, the structure may show the parent alone.

System: conditioned avoidance (shelf-jump response)
Assay: conditioned avoidance (shelf-jump response) test in rats
Assay type: in vivo, Male CD rats
Source text: A test designed to determine the potential antipsychotic activity of the compounds of this invention is the conditioned avoidance (shelf-jump response) test. Male CD rats (Charles River) maintained at approximately 400-450 gm body weight are used. […] A moveable wall, controlled by a motor, determines whether the rat has access to the shelf at any time during the experiment. The experimental chamber also contains a house light and sonalert. A steel grid floor in the main chamber is wired for presentation of electric shock. Each trial consists of a […]-second warning tone (conditioned stimulus), continuing for an additional fifteen seconds accompanied by electric shock, (unconditioned stimulus). A response (jumping onto the exposed shelf of the upper chamber) occurring during the initial fifteen-second warning tone is considered an avoidance response, while a response occurring during shock delivery is considered an escape response. Trials are presented on a fixed interval schedule of one minute. The session consists of thirty-six trials. Animals are run twice weekly with control sessions always preceding a drug run, and with at least one day intervening. Compounds are administered i.p. or p.o. at appropriate pre-treatment times to a minimum of five rats at each dose level over a range of doses. […] Response counts are summed over all subjects at a given dose. […] This number is expressed as a percentage of the total trials. […] Potential antipsychotic compounds suppress avoidance responding and increase escape responding.

| Compound | Active at (i.p.) | Active at (orally administered) |
| --- | --- | --- |
| O=C1CC2(CCC3CCC2C3)C(=O)N1CCCCN1CCN(c2ncccn2)CC1 (centres unmarked) [Example 1, 1'-[4-[4-(2-Pyrimidinyl)-1-piperazinyl]butyl]spiro[bicyclo[3.2.1]octane-2,3'-pyrrolidine]-2',5'-dione, dihydrochloride, hemihydrate] | 40 mg/kg | – |
| O=C1CC2(CCCC2)CC(=O)N1CCCCN1CCN(c2ccc(Cl)nn2)CC1 [Example 6, 8-[4-[4-(6-Chloro-3-pyridazinyl]-1-piperazinyl]-8-azaspiro[4,5]decane-7,9-dione dihydrochloride] | 40 mg/kg | – |
| O=C1CC2(CCCC2)CC(=O)N1CCCCN1CCN(c2cncc(Cl)n2)CC1 [Example 4, 8-[4-[4-(6-Chloro-2-pyrazinyl)-1-piperazinyl]butyl]-8-azaspiro[4,5]decane-7,9-dione dihydrochloride, hydrate] | – | 40 mg/kg |
| Octahydro-1'-[4-[4-(2-Pyrimidinyl)-1-piperazinyl]butyl]spiro[4,7-methano-5H-indene-5,3'-pyrrolidine]-2',5'-dione, dihydrochloride [Example 2] | 40 mg/kg | – |
| O=C1CC2(CCCC2)CC(=O)N1CCCCN1CCN(c2nccnc2Cl)CC1 [Example 5, 8-[4-[4-(3-Chloro-2-pyrazinyl)-1-piperazinyl]butyl]-8-azaspiro[4,5]decane-7,9-dione dihydrochloride, hemihydrate] | 40 mg/kg | – |
